# Laboratory results taken from patent US8907126B2, “Tyrosine derivative and method for producing tyrosine derivative” (NARD Institute, Ltd., priority 2012, dated 2014).
# Molecular target: T1, human recombinant melatonin MT1 receptors (Homo sapiens, UniProt P48039)
# T1 construct: expressed in transfected cells; host or cells: CHO-K1 cells (membranes)
# Assay: Inhibitory activity test against melatonin MT1 receptor ([35S]GTPγS binding, SPA)
# Format: biochemical
# Conditions: membranes of CHO-K1 cells expressing MT1, 0.1 nM 2-iodomelatonin, 0.3 nM [35S]GTPγS, HEPES buffer pH 7.4; test concentration not given
# Protocol: An inhibitory activity of the tyrosine derivative of the present invention against a melatonin MT1 receptor was evaluated. Specifically, human recombinant melatonin MT1 receptors expressed in CHO-K1 cells were used in modified HEPES buffer pH 7.4. The tyrosine derivative obtained in the above Example 8 was preincubated with 0.025 mg/mL of membranes of the cell and 1 μM of guanosine diphosphate in modified HEPES buffer (pH 7.4) at 25° C. for 20 minutes, then SPA, i.e. Scintillation proximity assay, beads were added thereto. The mixture was preincubated at 30° C. for 60 minutes. The reaction was initiated by adding 0.3 nM of [^35S]GTPγS and incubating the mixture for 30 minutes, and the test compound-induced inhibition of 0.1 nM 2-iodomelatonin-induced increase of [^35S]GTPγS binding response was measured.
# T1 sequence (P48039 whole entry): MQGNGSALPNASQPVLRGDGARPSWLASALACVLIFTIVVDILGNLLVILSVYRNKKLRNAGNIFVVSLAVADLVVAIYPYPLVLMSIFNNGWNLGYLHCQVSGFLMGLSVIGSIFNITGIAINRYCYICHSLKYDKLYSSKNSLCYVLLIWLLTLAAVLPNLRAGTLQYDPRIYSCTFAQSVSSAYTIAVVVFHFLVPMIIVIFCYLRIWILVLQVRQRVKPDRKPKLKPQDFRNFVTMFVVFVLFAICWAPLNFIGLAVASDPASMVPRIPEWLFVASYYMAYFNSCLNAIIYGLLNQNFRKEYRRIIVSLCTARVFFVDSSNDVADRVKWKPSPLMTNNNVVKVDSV
structure (smiles),measurement,value
CC(C)(C)OC(=O)NC(Cc1cc(OCCCl)ccc1I)C(=O)OC(C)(C)C (stereo not shown) [Example 8],inhibition of 2-iodomelatonin-induced increase of [35S]GTPγS binding response,33%
